Data as given in US7456203B2, “Muscarinic receptor antagonists” (Theravance, Inc., priority 1999, dated 2008).

Tests used:
M3 receptor in bladder = target: T1, M3 receptor in bladder (Rattus norvegicus, UniProt P08483); assay: Rat bladder in vitro binding assay, receptor block by selective ligand; conditions: bladder membranes
T1 construct: Membranes from rat bladder were prepared; from tissue; host or cells: rat bladder membranes
Experimental: (§1) Bladder was comprised of both M2 and M3 muscannic receptors. The ratio was typically 4:1 M2:M3. […] The following example illustrates the procedure for M3 bladder binding.
Membranes from rat bladder were prepared in a similar fashion to that used to isolate heart membrane above. […] To 50 μl of compound dilution in a 96-well assay plate was added an appropriate amount of rat heart membrane (usually 25 μl of membrane prep in 75 μl of 20 mM HEPES, 100 mM NaCl/10 mM MgCl2 at pH 7.5). The amount of membrane added depended in general on the results of signal optimization, and ranged from 12.5-25. Last, 50 μl of 2.12 nM 3H-N-methylscopolamine radioligand in compound dilution buffer was added. The total volume in each well was 200 μl. […] The filter plate was pre-blocked using 0.3% PEI for at least 15 mins., and then washed twice with 200 μl PBS. The assay plate was incubated for 1 hour at room temperature with gentle shaking. The contents of the assay plate was then transferred to the filter plate, and washed three times using 200 μl PBS. About 40 μl of scint was added to each well, the plate was allowed to sit at room temperature for 18 h, and then counted using a Packard Topcount NXT.

M2 receptor in bladder = target: T2, M2 receptor in bladder (Rattus norvegicus, UniProt P10980); assay: as above; conditions: blocking ligand 2 μM; bladder membranes
T2 construct: Membranes from rat bladder were prepared; from tissue; host or cells: rat bladder membranes
T2 sequence (P10980 1-466): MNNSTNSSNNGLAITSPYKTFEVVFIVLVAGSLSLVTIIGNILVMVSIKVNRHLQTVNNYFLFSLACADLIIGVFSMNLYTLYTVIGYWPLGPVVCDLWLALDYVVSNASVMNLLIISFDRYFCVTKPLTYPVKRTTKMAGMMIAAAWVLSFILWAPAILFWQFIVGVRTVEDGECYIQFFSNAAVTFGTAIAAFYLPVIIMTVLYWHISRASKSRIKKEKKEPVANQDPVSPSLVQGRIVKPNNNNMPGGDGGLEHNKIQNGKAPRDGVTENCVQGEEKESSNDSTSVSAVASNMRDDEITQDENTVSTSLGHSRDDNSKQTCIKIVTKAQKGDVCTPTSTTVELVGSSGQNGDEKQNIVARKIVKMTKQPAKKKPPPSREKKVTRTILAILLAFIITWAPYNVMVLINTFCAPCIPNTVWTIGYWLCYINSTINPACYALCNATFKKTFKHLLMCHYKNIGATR
Experimental: as §1
Membranes from rat bladder were prepared in a similar fashion to that used to isolate heart membrane above. […] To 50 μl of compound dilution in a 96-well assay plate was added an appropriate amount of rat heart membrane (usually 25 μl of membrane prep in 75 μl of 20 mM HEPES, 100 mM NaCl/10 mM MgCl2 at pH 7.5). The amount of membrane added depended in general on the results of signal optimization, and ranged from 12.5-25. Last, 50 μl of 2.12 nM 3H-N-methylscopolamine radioligand in compound dilution buffer was added. The total volume in each well was 200 μl. The final concentration of methoctramine was 2 μM. The filter plate was pre-blocked using 0.3% PEI for at least 15 mins., and then washed twice with 200 μl PBS. The assay plate was incubated for 1 hour at room temperature with gentle shaking. The contents of the assay plate was then transferred to the filter plate, and washed three times using 200 μl PBS. About 40 μl of scint was added to each well, the plate was allowed to sit at room temperature for 18 h, and then counted using a Packard Topcount NXT.

[1] = tested on: oxotremorine response (intraluminal pressure of the bladder); assay: In vivo bladder assay; set-up: species or system rat; conditions: 0.005-0.01 mg/kg, IV; after oxotremorine 0.3 mg/kg SC; anesthetized male Sprague-Dawley rats
Experimental: Male Sprague-Dawley rats weighing 250-300 g were anesthetized with urethane (1.3 g/kg, i.p.), inactin (25 mg/kg, i.p.), and xylazine (4 mg, i.p.). The jugular (or femoral) vein was isolated and ligated and a small incision was made in the vein distal to the ligation. […]
For data analysis, the oxotremorine response (zero inhibition) was determined by measuring the mean pressure 1 minute prior to the antagonist injection. Then, to assess antagonist inhibition, mean pressure was measured beginning at 1 minute and ending 2 minutes after antagonist administration. […] The percent inhibition by the antagonist can be determined by the ratio of the decrease from the zero to 100% values. • The formula is: oxotremorine mean−treatment mean*100 oxotremorine mean−atropine mean.

T1 sequence (P08483 whole entry): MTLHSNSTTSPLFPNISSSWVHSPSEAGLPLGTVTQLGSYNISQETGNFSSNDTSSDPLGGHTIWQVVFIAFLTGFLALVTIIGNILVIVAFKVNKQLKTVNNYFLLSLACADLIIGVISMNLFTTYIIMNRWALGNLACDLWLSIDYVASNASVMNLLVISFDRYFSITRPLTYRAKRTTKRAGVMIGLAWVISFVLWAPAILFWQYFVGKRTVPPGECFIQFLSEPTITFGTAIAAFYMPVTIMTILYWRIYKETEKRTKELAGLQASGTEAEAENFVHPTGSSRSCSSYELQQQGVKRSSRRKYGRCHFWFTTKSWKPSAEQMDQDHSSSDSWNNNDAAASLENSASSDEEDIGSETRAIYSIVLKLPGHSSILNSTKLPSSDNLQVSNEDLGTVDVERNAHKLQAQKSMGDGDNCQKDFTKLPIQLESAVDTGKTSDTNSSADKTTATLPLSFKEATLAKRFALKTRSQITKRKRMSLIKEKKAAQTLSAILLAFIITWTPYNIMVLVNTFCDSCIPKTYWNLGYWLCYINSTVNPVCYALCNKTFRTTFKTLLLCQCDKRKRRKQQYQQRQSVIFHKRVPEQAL

SMILES | block of M3 receptor (M3 receptor in bladder; 2 μM Darifenacin) | block of the M2 receptor in bladder (M2 receptor in bladder) | decrease in intraluminal pressure [1] | block of the M3 receptor in bladder (M3 receptor in bladder; final concentration of methoctramine 2 μM)
NC(=O)C(c1ccccc1)(c1ccccc1)[C@@H]1CCN(CCc2ccc3c(c2)CCO3)C1 [Darifenacin] | minimal | > 99% |  | 
CN1[C@@H]2CC[C@H]1C[C@@H](OC(=O)C(CO)c1ccccc1)C2 (some centres unmarked) [atropine] |  |  | 30-70% | 
COc1ccccc1CNCCCCCCNCCCCCCCCNCCCCCCNCc1ccccc1OC [methoctramine, Methoctramine] |  | > 99% |  | less than 40%
